Assay results from patent publication US10252977B2, “Halogen-substituted phenoxyphenylamidines and the use thereof as fungicides” (priority 2015, dated 2019).
Like-named read-outs stand apart in the source and are kept apart here.

Key:
[1] = Log P by HPLC on reversed phase columns (EEC directive 79/831 Annex V.A8); format: physicochemical; settings: LC-UV
Experimental: Measurement of Log P values was performed according to EEC directive 79/831 Annex V.A8 by HPLC (High Performance Liquid Chromatography) on reversed phase columns with the following methods: • ^[a] Log P value is determined by measurement of LC-UV, in an acidic range, with 0.1% formic acid in water and acetonitrile as eluent (linear gradient from 10% acetonitrile to 95% acetonitrile). • [b] Log P value is determined by measurement of LC-UV, in a neutral range, with 0.001 molar ammonium acetate solution in water and acetonitrile as eluent (linear gradient from 10% acetonitrile to 95% acetonitrile). […] Lambda-max-values were determined using UV-spectra from 200 nm to 400 nm and the peak values of the chromatographic signals.

Pyrenophora teres = assay: In vivo preventive test on Pyrenophora teres (net blotch on barley); settings: 500 ppm of active ingredient, 14 days after inoculation
Experimental: (§1) • Solvent: 5% by volume of Dimethyl sulfoxide • 10% by volume of Acetone • Emulsifier: 1 μl of Tween® 80 per mg of active ingredient
(§2) The active ingredients are made soluble and homogenized in a mixture of Dimethyl sulfoxide/Acetone//Tween® 80 and then diluted in water to the desired concentration.
The young plants of barley are treated by spraying the active ingredient prepared as described above. Control plants are treated only with an aqueous solution of Acetone/Dimethyl sulfoxide/Tween® 80.
After 24 hours, the plants are contaminated by spraying the leaves with an aqueous suspension of Pyrenophora teres spores. The contaminated barley plants are incubated for 48 hours at 20° C. and at 100% relative humidity and then for 12 days at 20° C. and at 70-80% relative humidity.
The test is evaluated 14 days after the inoculation. 0% means an efficacy which corresponds to that of the control plants while an efficacy of 100% means that no disease is observed.

Phakopsora pachyrhizi = assay: In vivo preventive test on Phakopsora (soybeans); settings: 7 days after inoculation
Experimental: To produce a suitable preparation of active compound, 1 part by weight of active compound is mixed with the stated amounts of solvent and emulsifier, and the concentrate is diluted with water to the desired concentration. To test for preventive activity, young plants are sprayed with the preparation of active compound at the stated rate of application. After the spray coating has dried on, the plants are inoculated with an aqueous spore suspension of the causal agent of soybean rust (Phakopsora pachyrhizi) and stay for 24 h without light in an incubation cabinet at approximately 24° C. and a relative atmospheric humidity of 95%. The plants remain in the incubation cabinet at approximately 24° C. and a relative atmospheric humidity of approximately 80% and a day/night interval of 12 h.

Puccinia recondita = assay: In vivo preventive test on Puccinia recondita (brown rust on wheat); settings: 500 ppm of active ingredient, 11 days after inoculation
Experimental: as §1, §2
(§3) The young plants of wheat are treated by spraying the active ingredient prepared as described above. Control plants are treated only with an aqueous solution of Acetone/Dimethyl sulfoxide/Tween® 80.
After 24 hours, the plants are contaminated by spraying the leaves with an aqueous suspension of Puccinia recondita spores. The contaminated wheat plants are incubated for 24 hours at 20° C. and at 100% relative humidity and then for 10 days at 20° C. and at 70-80% relative humidity.
The test is evaluated 11 days after the inoculation. 0% means an efficacy which corresponds to that of the control plants while an efficacy of 100% means that no disease is observed.

Septoria tritici = assay: In vivo preventive test on Septoria tritici (leaf spot on wheat); settings: 500 ppm of active ingredient, 24 days after inoculation
Experimental: as §1, §2, §3
After 24 hours, the plants are contaminated by spraying the leaves with an aqueous suspension of Septoria tritici spores. The contaminated wheat plants are incubated for 72 hours at 18° C. and at 100% relative humidity and then for 21 days at 20° C. and at 90% relative humidity.
The test is evaluated 24 days after the inoculation. 0% means an efficacy which corresponds to that of the control plants while an efficacy of 100% means that no disease is observed.

[2] = Hydrolysis stability test in homogeneous aqueous solution; format: physicochemical; settings: 50° C., 24 hours, first order degradation assumed
Experimental: The chemical stability towards hydrolysis of the phenylamidines described in the prior art is good but an improved stability may be an advantage during the preparation and formulation processes in a large scale. The improved stability towards hydrolysis was proven by a hydrolysis stability test as described below: To produce a suitable preparation of active compound for the hydrolysis stability test, a 1000 ppm stock solution (1 mg/mL) of active compound in acetonitrile is prepared. Three aliquots of 100 μL are pipetted into HPLC vials and diluted with 750 μL acetonitrile. In each vial 850 μL of the appropriate buffer solution (pH4, pH7 and pH9, CertiPUR, Fa. Merck) is added. The buffer containing HPLC vials are incubated in a heated sample tray at 50° C. for 24 hours. The amount A of the active compound is analyzed by HPLC (UV-peak areas at 210 nm) at eight points in time t: 0 min, 140 min, 350 min, 560 min, 770 min, 980 min, 1190 min, 1400 min. The half-life time (T1/2) of each active compound is calculated via linear regression by using the following equations (first order degradation assumed): In table III the results of the hydrolysis stability test are shown for the compounds (I-01), (I-02), (I-03), (I-04) and (I-05) at various pH-values. […] 337 known from WO2008/110278. […] This increased stability will be of advantage during the preparation and formulation processes in a large scale compared to known amidines. The data are to be seen merely by way of example and are not limiting for the purposes of the invention.

[3] = Photolysis stability test; format: physicochemical; settings: dried film in MTP, irradiated at 30° C. and 480 W/m^2, up to 24 h, first order degradation assumed
Experimental: The stability towards photolysis of the phenylamidines described in the prior art is good but an improved stability towards photolysis may be an advantage as it could offer a longer lasting efficacy when applied to plants by foliar application. The improved stability towards photolysis was proven by a […] stability test as described below:
To produce a suitable preparation of active compound for the photolysis stability test, a 1000 ppm stock solution (1 mg/mL) of active compound in acetonitrile is prepared. Aliquots of 25 μL of this stock solution are pipetted in three wells of a Bio-one microtiter plate (MTP) UVStar 96 (Fa. Greiner, Art. No. 655801). The MTP is dried overnight in the dark and then irradiated at 30° C. and 480 W/m^2 with a UV irradiation device SUNTEST XLS+ or SUNTEST CPS (Fa. Atlas). The amount A of the active compound is analyzed by HPLC (UV-peak areas at 210 nm) at five points in time t: 0 h, 2 h, 4 h, 6 h, 24 h by using the following method: 200 μL acetonitrile is added in the respective well of the MTP and the MTP is sealed with a Bio-one sealing foil, viewseal 80/140 mm (Fa. Greiner, Art. No. 676070). The MTPs are sonicated for 3 minutes and analysed by HPLC. The half-life time (T1/2) of each active compound is calculated via linear regression by using the following equations (first order degradation assumed): […]
In table IV the results of the photolysis stability test are shown for the compounds (I-01) and (I-02). […] This increased chemical stability towards photolysis will be of advantage as it will offer a longer lasting efficacy when applied to plants by foliar application compared to known amidines. The data are to be seen merely by way of example and are not limiting for the purposes of the invention.

soy bean plants = assay: Plant compatibility test using soy bean plants; format: in vivo; settings: soy bean young plants sprayed at 1000 ppm, evaluated 6 days after application; 0% no damages, 100% totally damaged
Experimental: Plant Compatibility Test Using Soy Bean Plants • Solvent: 24.5 parts by weight of acetone • 24.5 parts by weight of dimethylacetamide • Emulsifier: 1 part by weight of alkylaryl polyglycol ether To produce a suitable preparation of active compound, 1 part by weight of active compound is mixed with the stated amounts of solvent and emulsifier, and the concentrate is diluted with water to the desired concentration. Young plants are sprayed with the preparation of active compound at the stated application rate. The plants are then placed in a greenhouse at approximately 21° C. and a relative atmospheric humidity of approximately 80%. The test is evaluated 6 days after application and comprises plant damages like leaf deformation, chlorosis, necrosis, shoot damage or stunting. The results are summarized in table V. 0% means no damages are observed, while 100% means that the plants are totally damaged.

[4] = acidic range, 0.1% formic acid in water and acetonitrile as eluent, read-out: LogP [a]
[5] = neutral range, 0.001 molar ammonium acetate solution in water and acetonitrile as eluent, read-out: LogP [b]
[6] = buffer pH 7/acetonitrile, read-out: T1/2 (pH 7) (converted)
[7] = buffer pH 9/acetonitrile, read-out: T1/2 (pH 9) (converted)

Row | SMILES | chromatographic logP [1, 4] | half-life at 58.8 µg/mL [2, 6] [h] | half-life at 58.8 µg/mL [2, 7] [h] | half-life [3] [h] | also measured
1 | Cc1cc(Oc2ccccc2Br)c(C(F)(F)F)cc1[N+](=O)[O-] [VI-05, 1-(2-bromophenoxy)-5-methyl-4-nitro-2-(trifluoromethyl)benzene] | 4.64 | – | – | – | –
2 | CCN(C)C=Nc1cc(Cl)c(Oc2ccccc2Br)cc1C [Example I-02, N′-[4-(2-bromophenoxy)-5-chloro-2-methylphenyl]-N-ethyl-N-methylimidoformamide] | 1.86 | 70 | 64 | > 200 | efficacy (Pyrenophora teres): at least 70%; efficacy (Phakopsora pachyrhizi; 10 ppm of active ingredient): at least 70%; efficacy (Puccinia recondita): at least 70%; efficacy (Septoria tritici): at least 70%; chromatographic logP [1, 5]: 5.13
3 | CCN(C)C=Nc1cc(C(F)(F)F)c(Oc2ccccc2Br)cc1C [Example I-05, N′-[4-(2-bromophenoxy)-2-methyl-5-(trifluoromethyl)phenyl]-N-ethyl-N-methylimidoformamide] | 1.9 | 80 | 66 | > 200 | –
4 | CCN(C)C=Nc1cc(Cl)c(Oc2ccccc2Cl)cc1C [Example I-03, N′-[5-chloro-4-(2-chlorophenoxy)-2-methylphenyl]-N-ethyl-N-methylimidoformamide] | 1.55 | 63 | 53 | 59 | –
5 | CCN(C)/C=N/c1cc(Cl)c(Oc2ccccc2F)cc1C [Example I-01, N′-[5-chloro-4-(2-fluorophenoxy)-2-methylphenyl]-N-ethyl-N-methylimidoformamide] | 1.64 | 67 | 60 | 32 | efficacy (Phakopsora pachyrhizi; 100 ppm of active ingredient): at least 70%; chromatographic logP [1, 5]: 4.56; Necrosis in % (soy bean plants): 50%
6 | CCN(C)/C=N/c1cc(C)c(Oc2ccccc2F)cc1C [reference compound] | – | 25 | 17 | – | Necrosis in % (soy bean plants): 90%
7 | CCN(C)C=Nc1cc(C(F)(F)F)c(Oc2ccccc2F)cc1C [Example I-04, N-ethyl-N′-[4-(2-fluorophenoxy)-2-methyl-5-(trifluoromethyl)phenyl]-N-methylimidoformamide] | 1.72 | 83 | 74 | > 200 | –
8 | CCN(C)/C=N/c1cc(C)c(Oc2ccccc2)cc1C [Compound no. 1 known from WO2008/110313, reference compound] | – | 24 | 16 | 10 | Necrosis in % (soy bean plants): 90%
9 | CCN(C)C=Nc1cc(Cl)c(Oc2ccccc2I)cc1C [Example I-06, N′-[5-chloro-4-(2-iodophenoxy)-2-methylphenyl]-N-ethyl-N-methylimidoformamide] | 1.81 | 61 | 55 | 34 | –
10 | Cc1cc(Oc2ccccc2Cl)c(Cl)cc1[N+](=O)[O-] [VI-03, 1-chloro-2-(2-chlorophenoxy)-4-methyl-5-nitrobenzene] | 4.51 | – | – | – | –

More lines, main results first:

Row | chromatographic logP [1, 4] | half-life at 58.8 µg/mL [2, 6] [h] | half-life at 58.8 µg/mL [2, 7] [h] | half-life [3] [h] | SMILES | also measured
11 | 3.37 | – | – | – | Cc1cc(Oc2ccccc2Cl)c(Cl)cc1N [VIII-03, 5-chloro-4-(2-chlorophenoxy)-2-methylaniline] | –
12 | 3.68 | – | – | – | Cc1cc(Oc2ccccc2Br)c(C(F)(F)F)cc1N [VIII-05, 4-(2-bromophenoxy)-2-methyl-5-(trifluoromethyl) aniline] | –
